The supplement of paper PMC10307832

Key:
Assay in all cases: relative viability (nuclei count vs DMSO), 5 days (fraction); higher = more cells survive
[1] = compound: CC(=O)Nc1cccc(-n2c(=O)n(C3CC3)c(=O)c3c(Nc4ccc(I)cc4F)n(C)c(=O)c(C)c32)c1 [Trametinib] + Cc1cc(Nc2cc(N3CCN(C)CC3)nc(Sc3ccc(NC(=O)C4CC4)cc3)n2)n[nH]1 [Tozasertib] (partner 0.1 µM)
In short: (§1)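 The day after seeding in 1536-well plates, lung cancer cell lines were treated by pin tool with a single drug, or with a fixed anchor-drug dose together with five library-drug doses (not always all listed) in √10 steps. After 5 days, a combined fix-and-stain solution (final 0.05% Triton X-100, 1% formaldehyde, 1 ug/ml Hoechst) was added. Nuclei counted on 4× images gave relative viability as treated counts over vehicle counts, reported as the median of duplicate plates.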

[2] = compound: CC(=O)Nc1cccc(-n2c(=O)n(C3CC3)c(=O)c3c(Nc4ccc(I)cc4F)n(C)c(=O)c(C)c32)c1 [Trametinib] + Cc1nc(NC(=O)N2CCC[C@H]2C(N)=O)sc1-c1ccnc(C(C)(C)C(F)(F)F)c1 [Alpelisib] (partner 2 µM)
In short: as §1

[3] = compound: CN1C=C(C2=CC=CC=C21)/C=C\3/C4=C(C=CC=N4)NC3=O + CC1(C)CCC(c2ccc(Cl)cc2)=C(CN2CCN(c3ccc(C(=O)NS(=O)(=O)c4ccc(N[C@H](CCN5CCOCC5)CSc5ccccc5)c(S(=O)(=O)C(F)(F)F)c4)cc3)CC2)C1 [Navitoclax] (partner 0.5 µM)
In short: as §1

[4] = compound: CN1C=C(C2=CC=CC=C21)/C=C\3/C4=C(C=CC=N4)NC3=O + O=C(c1cc(Cc2n[nH]c(=O)c3ccccc23)ccc1F)N1CCN(C(=O)C2CC2)CC1 [Olaparib] (partner 8 µM)
In short: as §1

| Cell Line | relative viability ([1]; first compound 0.0025 µM) | relative viability ([1]; first compound 0.007906 µM) | relative viability ([1]; first compound 0.025 µM) | relative viability ([1]; first compound 0.07906 µM) | relative viability ([1]; first compound 0.25 µM) | relative viability ([2]; first compound 0.0025 µM) | relative viability ([2]; first compound 0.007906 µM) | relative viability ([2]; first compound 0.025 µM) | relative viability ([2]; first compound 0.07906 µM) | relative viability ([2]; first compound 0.25 µM) | relative viability ([3]; first compound 0.02 µM) | relative viability ([3]; first compound 0.06325 µM) | relative viability ([3]; first compound 0.2 µM) | relative viability ([3]; first compound 0.6325 µM) | relative viability ([3]; first compound 2 µM) | relative viability ([4]; first compound 0.02 µM) | relative viability ([4]; first compound 0.06325 µM) | relative viability ([4]; first compound 0.2 µM) | relative viability ([4]; first compound 0.6325 µM) | relative viability ([4]; first compound 2 µM) |
| --- | --- | --- | --- | --- | --- | --- | --- | --- | --- | --- | --- | --- | --- | --- | --- | --- | --- | --- | --- | --- |
| NCI-H2126 | 0.784 | 0.694 | 0.523 | 0.653 | 0.576 | 0.706 | 0.608 | 0.447 | 0.527 | 0.45 | 0.789 | 0.824 | 0.833 | 0.859 | 0.8 | 0.888 | 0.853 | 0.919 | 0.971 | 0.883 |
| HCC-366 | 0.117 | 0.0857 | 0.0884 | 0.07 | 0.0695 | 0.214 | 0.241 | 0.182 | 0.143 | 0.0782 | 0.945 | 0.994 | 1.13 | 1.07 | 0.986 | 0.315 | 0.287 | 0.36 | 0.372 | 0.288 |
| LU99A | 0.234 | 0.272 | 0.232 | 0.244 | 0.232 | 0.571 | 0.456 | 0.444 | 0.262 | 0.172 | 0.86 | 0.849 | 0.857 | 0.865 | 0.79 | 0.253 | 0.24 | 0.274 | 0.21 | 0.278 |
| HOP-62 | 0.419 | 0.367 | 0.374 | 0.232 | 0.203 | 0.813 | 0.984 | 0.525 | 0.377 | 0.166 | 1.25 | 1.14 | 0.703 | 0.99 | 1 | 0.537 | 0.509 |  | 0.968 | 0.629 |
| HCC-15 | 0.345 | 0.234 | 0.161 | 0.148 | 0.15 | 0.645 | 0.436 | 0.275 | 0.204 | 0.148 | 0.763 | 0.689 | 0.736 | 0.559 | 0.665 | 0.716 | 0.679 | 0.733 | 0.713 | 0.837 |
| HARA | 0.12 | 0.101 | 0.0849 | 0.108 | 0.0591 | 0.758 | 0.657 | 0.44 | 0.498 | 0.241 | 1.09 | 1.15 | 1.04 | 1.17 | 1.17 | 0.247 | 0.747 |  | 0.726 | 0.794 |
| SK-MES-1 | 0.955 | 0.921 | 0.745 | 0.466 | 0.361 | 0.722 | 0.542 | 0.323 | 0.31 | 0.184 | 0.902 | 1.04 | 1.26 | 1.11 | 1.15 | 0.638 | 0.516 | 0.592 | 0.544 | 0.505 |
| NCI-H1355 | 0.588 | 0.463 | 0.418 | 0.394 | 0.318 | 0.68 | 0.627 | 0.356 | 0.388 | 0.352 | 0.868 | 0.921 | 0.793 | 0.632 | 0.673 | 0.558 | 0.678 | 0.717 | 0.469 | 0.574 |
| NCI-H727 | 0.353 | 0.337 | 0.287 | 0.231 | 0.279 | 0.312 | 0.211 | 0.227 | 0.172 | 0.183 | 0.396 | 0.349 | 0.385 | 0.372 | 0.4 | 0.76 | 0.729 | 0.67 | 0.688 | 0.635 |
| NCI-H520 | 0.388 | 0.46 | 0.473 | 0.469 | 0.362 | 0.768 | 0.887 | 0.81 | 0.818 | 0.693 | 0.935 | 1.03 | 1.09 | 1.17 | 1.17 | 0.298 | 0.369 | 0.312 | 0.342 | 0.363 |
| NCI-H838 | 0.275 | 0.24 | 0.225 | 0.217 | 0.22 | 0.97 | 0.877 |  | 0.709 | 0.551 | 0.941 | 1.04 | 1.05 | 1.04 | 1.1 | 0.695 | 0.604 | 0.653 | 0.765 | 0.67 |
| HCC-44 | 0.897 | 0.519 | 0.801 | 0.594 | 0.228 | 0.774 | 0.618 | 0.614 | 0.528 | 0.187 | 0.943 | 1.03 | 0.89 | 0.726 | 0.772 | 0.908 | 0.954 | 1.02 | 0.997 | 0.942 |
| LK-2 | 0.183 | 0.17 | 0.186 | 0.217 | 0.184 | 1 | 0.862 | 0.958 | 1.28 | 0.303 |  | 0.683 | 0.638 | 0.726 | 1.04 | 0.563 | 0.528 |  | 0.422 | 0.66 |
| HCC-827 | 0.406 | 0.401 | 0.31 | 0.293 | 0.307 | 1.01 | 0.753 | 0.699 | 0.591 | 0.399 | 0.956 | 1.02 |  | 1.03 | 0.986 | 0.624 | 0.61 |  | 0.638 | 0.764 |
| SW 1573 | 0.179 | 0.147 | 0.191 | 0.129 | 0.143 | 0.629 | 0.619 | 0.564 | 0.457 | 0.43 | 1.18 | 0.861 | 1.02 | 1.12 | 0.893 | 0.5 | 0.425 | 0.434 | 0.453 | 0.529 |
| NCI-H2023 | 0.232 | 0.262 | 0.26 | 0.232 | 0.199 | 0.38 | 0.486 | 0.315 | 0.352 | 0.288 | 1.06 | 0.935 | 0.961 | 1.03 | 0.996 | 0.451 | 0.53 | 0.566 | 0.432 | 0.517 |
